Experimental data: ChEMBL document CHEMBL1121460, “Some spiro analogues of the potent analgesic ketobemidone” (J Med Chem, 1980)
Activity calls are given as the source filed them. The calls are words filed in the database; no cut-off is given here.

Columns and labels:
[1] = species on record: Mus musculus; assay: Evaluated for activity in Nilsen test
[2] = species on record: Mus musculus; assay: Evaluated for analgesic activity in mice using hot plate method; format: functional
[3] = target: Opioid receptor (Rattus norvegicus, UniProt P33533+P34975+P33535); assay: Tested for Opioid receptors affinity determined by the capacity to displace bound, radiolabeled dihydromorphine from rat brain homogenates.
[4] = species on record: Mus musculus; assay: Evaluated for analgesic activity in mice using Nilsen test; format: functional
[5] = tested on: Monkey; assay: Evaluated for activity in inverted screen assay; format: functional; settings: Cercopithecidae
[6] = tested on: Monkey; assay: Evaluated for depressant effects in photocell activity cages at 60 mg/kg; IA is Inactive.; format: functional, organism-based; parameters: dose 60 mg/kg; settings: Cercopithecidae
[7] = tested on: Monkey; assay: Evaluated for single dose suppression tests in monkeys at 10 mg/kg; Not Effective (activity in relation to morphine); format: functional, organism-based; parameters: dose 10 mg/kg; settings: Cercopithecidae
[8] = tested on: Monkey; assay: Evaluated for single dose suppression tests in monkeys at 5 mg/kg; Not Effective (activity in relation to morphine); format: functional, organism-based; parameters: dose 5 mg/kg; settings: Cercopithecidae
[9] = Lethal dose in monkeys; format: toxicity, organism-based; settings: cercopithecidae, in vivo
[10] = tested on: Monkey; assay: Evaluated for single dose suppression tests in monkeys at 2 mg/kg; Not Effective (activity in relation to morphine); format: functional, organism-based; parameters: dose 2 mg/kg; settings: Cercopithecidae
[11] = species on record: Mus musculus; assay: Evaluated for analgesic activity in mice using writhing test; format: functional
[12] = tested on: Monkey; assay: Evaluated for depressant effects in photocell activity cages at 10 mg/kg; IA is Inactive.; format: functional, organism-based; parameters: dose 10 mg/kg; settings: Cercopithecidae

Structure (SMILES) | ED50 [2] [mg/kg] | Ki [3] [µM] | ED50 [4] [mg/kg] | also measured
CN1CC[C@]23c4c5ccc(O)c4O[C@H]2[C@@H](O)C=C[C@H]3[C@H]1C5 [MORPHINE] |  |  |  | ED50 [1]: 0.8 mg/kg
CCC1OC(C)(C)c2ccc(O)cc2C12CCN(C)CC2 (configuration not stated) | > 30 | 10 | > 30 | 
CCCCCN1CCC2(CC1)c1cc(O)ccc1C(C)(C)OC2CC (configuration not stated) | > 30 | 2 | > 30 | ED50 [5]: 38 mg/kg; ED50 [6]: inactive; Activity [7]: inactive; Activity [8]: inactive; LD50 [9]: 80 mg/kg; Activity [10]: inactive; ED50 [11]: 4.2 mg/kg; ED50 [12]: inactive
C=CCN1CCC2(CC1)c1cc(O)ccc1C(C)(C)OC2CC (configuration not stated) | > 30 | 5 | > 30 | 
CCCCCN1CCC2(CC1)c1cc(O)ccc1C(C)(CC)OC2CC (configuration not stated) | > 30 | 5 | > 30 | 
CCC(=O)C1(c2cccc(O)c2)CCN(C)CC1 [KETOBEMIDONE] | 0.8 |  |  | 
